ChEMBL document CHEMBL3734663, “Solid-phase synthesis and in vitro biological activity of a Thr4→Ser4 analog of daptomycin” (2015)

What was measured:
Type in all cases: functional
[1] = system: Bacillus subtilis; assay: Antibacterial activity against Bacillus subtilis 1046 in presence of 5 mM Ca2+
[2] = system: Bacillus subtilis; assay: Antibacterial activity against Bacillus subtilis 1046 in presence of 100 mM Ca2+
[3] = system: Bacillus subtilis; assay: Antibacterial activity against Bacillus subtilis 1046 in presence of 1.8 mM Ca2+

Row | SMILES | MIC [1] [µg/mL] | MIC [2] [µg/mL] | MIC [3] [µg/mL]
1 | CCCCCCCCCC(=O)N[C@@H](Cc1c[nH]c2ccccc12)C(=O)N[C@@H](CC(N)=O)C(=O)N[C@@H](CC(=O)O)C(=O)N[C@H]1COC(=O)[C@H](Cc2ccc(O)cc2)NC(=O)[C@H](CCC(=O)O)NC(=O)[C@@H](CO)NC(=O)CNC(=O)[C@H](CC(=O)O)NC(=O)[C@@H](C)NC(=O)[C@H](CC(=O)O)NC(=O)[C@H](CCCN)NC(=O)CNC1=O | 35 | 1.3 | 
2 | CCCCCCCCCC(=O)N[C@@H](Cc1c[nH]c2ccccc12)C(=O)N[C@H](CC(N)=O)C(=O)N[C@@H](CC(=O)O)C(=O)N[C@@H]1C(=O)NCC(=O)N[C@@H](CCCN)C(=O)N[C@@H](CC(=O)O)C(=O)N[C@H](C)C(=O)N[C@@H](CC(=O)O)C(=O)NCC(=O)N[C@H](CO)C(=O)N[C@@H]([C@H](C)CC(=O)O)C(=O)N[C@@H](CC(=O)c2ccccc2N)C(=O)O[C@@H]1C | 0.75 | 0.5 | 1
3 | CCCCCCCCCC(=O)N[C@@H](Cc1c[nH]c2ccccc12)C(=O)NC(CC(N)=O)C(=O)N[C@@H](CC(=O)O)C(=O)N[C@@H]1C(=O)NCC(=O)N[C@@H](CCCN)C(=O)N[C@@H](CC(=O)O)C(=O)N[C@H](C)C(=O)N[C@@H](CC(=O)O)C(=O)NCC(=O)N[C@H](CO)C(=O)N[C@@H](C(C)CC(=O)O)C(=O)N[C@@H](CC(=O)c2ccccc2N)C(=O)O[C@@H]1C (single isomer, unassigned) [DAPTOMYCIN] | 5 | 5 | 40

Further lines, with some results ahead:

Row | MIC [1] [µg/mL] | MIC [2] [µg/mL] | SMILES | MIC [3] [µg/mL]
4 | 1.5 | 1.5 | CCCCCCCCCC(=O)N[C@@H](Cc1c[nH]c2ccccc12)C(=O)N[C@@H](CC(N)=O)C(=O)N[C@@H](CC(=O)O)C(=O)N[C@H]1COC(=O)[C@H](Cc2c[nH]c3ccccc23)NC(=O)[C@H](CCC(=O)O)NC(=O)[C@@H](CO)NC(=O)CNC(=O)[C@H](CC(=O)O)NC(=O)[C@@H](C)NC(=O)[C@H](CC(=O)O)NC(=O)[C@H](CCCN)NC(=O)CNC1=O | 5
5 | > 100 | > 100 | CCCCCCCCCC(=O)N[C@@H](Cc1c[nH]c2ccccc12)C(=O)N[C@@H](CC(N)=O)C(=O)N[C@@H](CC(=O)O)C(=O)N[C@H]1COC(=O)[C@H](Cc2c[nH]c3ccccc23)NC(=O)[C@H](CCC(=O)O)NC(=O)[C@@H](CO)NC(=O)CNC(=O)[C@H](CC(=O)O)NC(=O)[C@@H](C)NC(=O)[C@H](C)NC(=O)[C@H](CCCN)NC(=O)CNC1=O | > 100
